ChEMBL document CHEMBL1130622, “N-(2-(4-hydroxyphenyl)ethyl)-4-chlorocinnamide: a novel antagonist at the 1A/2B NMDA receptor subtype” (Bioorg Med Chem Lett, 1998)

Experiments:
Assay type in all cases: functional, Rattus norvegicus
[1] = Antagonistic activity towards NMDA receptor 1A/2C subtype was determined
[2] = Antagonistic activity towards NMDA receptor 1A/2A subtype was determined
[3] = Antagonistic activity towards NMDA receptor 1A/2B subtype was determined

IC50 [1]	IC50 [2]	IC50 [3]	SMILES
> 300 µM	> 300 µM	0.33 µM	O=C(/C=C/c1ccc(O)cc1)NCCc1ccc(Cl)cc1
> 300 µM	> 300 µM	0.68 µM	O=C(/C=C/c1ccccc1)NCCc1ccc(O)cc1
175 µM	> 300 µM	7.4 µM	O=C(/C=C/c1ccc(Cl)cc1)NCCc1cccc(O)c1
200 µM	> 300 µM	21 µM	O=C(/C=C/c1ccc(O)cc1)NCCc1ccc(O)cc1 [N-P-COUMAROYL TYRAMINE]
> 300 µM	> 300 µM	0.17 µM	O=C(/C=C/c1ccc(Cl)cc1)NCCc1ccc(O)cc1
> 300 µM	> 300 µM	> 300 µM	O=C(/C=C/c1ccc(Cl)cc1)NCCc1ccccc1
105 µM	78 µM	3.4 µM	N#C/C(=C\c1ccc(Cl)cc1)C(=O)NCCc1ccc(O)cc1
> 300 µM	> 300 µM	9 µM	N#C/C(=C\C(=O)NCCc1ccc(O)cc1)c1ccc(Cl)cc1
> 300 µM	160 µM	> 300 µM	O=C(/C=C/c1ccc(Cl)cc1)NCCc1ccc(Cl)cc1
